Our source for the IC50 values is patent US20240317721A1, “PYRAZOLYL DERIVATIVES AS INHIBITORS OF THE KRAS MUTANT PROTEIN” (NOVARTIS AG, priority 2021, published 2024).

Structures are written as SMILES.

The target of this assay is KRasG12C (M1-K169, biotinylated on the N-terminus) (Homo sapiens (Human), UniProt P01116, G12C). Description: Covalent competition assay: scintillation proximity assay (SPA) quantifying covalent modification of KRASG12C. Type of assay: binding. The conditions noted are these: competition with radiolabeled covalent probe (Compound B/Compound A), 2 hours incubation, 10 nM KRasG12C. Put shortly: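 Test compounds compete with a radiolabeled covalent probe for modification of N-terminally biotinylated KRasG12C(M1-K169):GDP, final 10 nM protein, 25 nM radio-ligand, 475 nM unlabelled ligand, 2 h with agitation in 20 mM Tris-HCl pH 7.5, 150 mM NaCl, 0.1 mM MgCl2, 0.01% Tween-20.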
(In a scintillation proximity assay essentially only radioactivity close to the scintillant gives light.)
For `C=CC(=O)N1CC2(CC(n3nc(N4CCC5(CN(C)CCO5)CC4(C)C)c(-c4c(Cl)c(C)cc5[nH]ncc45)c3C)C2)C1` (single isomer, unassigned) [Example 207b, 1-(6-(4-(5-chloro-6-methyl-1H-indazol-4-yl)-5-methyl-3-(4,8,8-trimethyl-1-oxa-4,9-diazaspiro[5.5]undecan-9-yl)-1H-pyrazol-1-yl)-2-azaspiro[3.3]heptan-2-yl)prop-2-en-1-one], the IC50 was found to be 20 nM. In the case of `C=CC(=O)N1CC2(CC(n3nc(N4CC[C@@H](CN5CCN(C(=O)CO)CC5)CC4(C)C)c(-c4c(Cl)c(Cl)cc5[nH]ncc45)c3C)C2)C1` (single isomer, unassigned) [Example 310b] it was 7 nM; in that of `C=CC(=O)N1CC2(CC(n3nc(N4CCN(C5COC5)C5COCC54)c(-c4c(Cl)c(C)cc5[nH]ncc45)c3C)C2)C1` (stereo not drawn) [Example 136b, 1-(6-(4-(5-chloro-6-methyl-1H-indazol-4-yl)-5-methyl-3-((4aS*,7aS*)-4-(oxetan-3-yl)hexahydrofuro[3,4-b]pyrazin-1(2H)-yl)-1H-pyrazol-1-yl)-2-azaspiro[3.3]heptan-2-yl)prop-2-en-1-one], greater than 5000 nM.

For the compound `C=CC(=O)N1CC2(CC(n3nc(N4CCc5ncncc5C4)c(-c4c(Cl)c(C)cc5[nH]ncc45)c3C)C2)C1` (single isomer, unassigned) [Example 15b, 1-(6-(4-(5-chloro-6-methyl-1H-indazol-4-yl)-3-(7,8-dihydropyrido[4,3-d]pyrimidin-6(5H)-yl)-5-methyl-1H-pyrazol-1-yl)-2-azaspiro[3.3]heptan-2-yl)prop-2-en-1-one], the 50% inhibitory concentration (IC50) amounted to 305 nM. The figure for `C=CC(=O)N1CC2(CC(n3nc(N4CCN(C5CCCOC5)C[C@]4(C)CC)c(-c4c(Cl)c(C)cc5[nH]ncc45)c3C)C2)C1` (single isomer, unassigned) [Example 157a] is greater than 5000 nM. In the case of `C=CC(=O)N1CC2(CC(n3nc(N4CC[C@@H](CN5C6CCC5CN(C(C)=O)C6)CC4(C)C)c(-c4c(Cl)c(Cl)cc5[nH]ncc45)c3C)C2)C1` (single isomer, unassigned) [Example 318a] it was 4000 nM. In the case of `C=CC(=O)N1CC2(CC(n3nc(N4CCN(C5CCOCC5)C[C@]4(C)CCOC)c(-c4c(Cl)c(C)cc5[nH]ncc45)c3C)C2)C1` (single isomer, unassigned) [Example 87a], the half-maximal inhibitory concentration (IC50) was found to be 13 nM. In the case of `C=CC(=O)N1CC2(CC(n3nc(N4CCC(CN5C[C@@H]6OCCO[C@@H]6C5)CC4(C)C)c(-c4c(Cl)c(Cl)cc5[nH]ncc45)c3C)C2)C1` (single isomer, unassigned) [Example 232b] it was 137 nM; in that of `C=CC(=O)N1CC2(CC(n3nc(N4CC[C@@H](CN5CCN(CCOC)C(=O)C5)CC4(C)C)c(-c4c(Cl)c(Cl)cc5[nH]ncc45)c3C)C2)C1` (single isomer, unassigned) [Example 256b], 10 nM. As to `C=CC(=O)N1CC2(CC(n3nc(N4CCN(CC(C)(C)O)CC45CCCC5)c(-c4c(Cl)c(C)cc5[nH]ncc45)c3C)C2)C1` (single isomer, unassigned) [Example 165a, 1-(6-(4-(5-chloro-6-methyl-1H-indazol-4-yl)-3-(9-(2-hydroxy-2-methylpropyl)-6,9-diazaspiro[4.5]decan-6-yl)-5-methyl-1H-pyrazol-1-yl)-2-azaspiro[3.3]heptan-2-yl)prop-2-en-1-one], the half-maximal inhibitory concentration (IC50) is greater than 5000 nM. The figure for `C=CC(=O)N1CC2(CC(n3nc(N4CCC5(CN(C)CCO5)CC4(C)C)c(-c4c(Cl)c(C)cc5[nH]ncc45)c3C)C2)C1` (single isomer, unassigned) [Example 207a, 1-(6-(4-(5-chloro-6-methyl-1H-indazol-4-yl)-5-methyl-3-(4,8,8-trimethyl-1-oxa-4,9-diazaspiro[5.5]undecan-9-yl)-1H-pyrazol-1-yl)-2-azaspiro[3.3]heptan-2-yl)prop-2-en-1-one] is greater than 5000 nM; for `C=CC(=O)N1CC2(CC(n3nc(N4CCC5(CN(C6COC6)C5)CC4(C)C)c(-c4c(Cl)c(C)cc5[nH]ncc45)c3C)C2)C1` (single isomer, unassigned) [Example 91b, 1-(6-(4-(5-chloro-6-methyl-1H-indazol-4-yl)-3-(6,6-dimethyl-2-(oxetan-3-yl)-2,7-diazaspiro[3.5]nonan-7-yl)-5-methyl-1H-pyrazol-1-yl)-2-azaspiro[3.3]heptan-2-yl)prop-2-en-1-one] it is 13 nM; for `C=CC(=O)N1CC2(CC(n3nc(N4[C@H](C)CN(C(C)=O)C[C@@H]4C)c(-c4c(Cl)c(C)cc5[nH]ncc45)c3C)C2)C1` (single isomer, unassigned) [Example 13a] it is greater than 50000 nM. The figure for `C=CC(=O)N1CC2(CC(n3nc(N4CC[C@@H](CN5CCOC[C@@H]5CO)CC4(C)C)c(-c4c(Cl)c(Cl)cc5[nH]ncc45)c3C)C2)C1` (single isomer, unassigned) [Example 303a] is 5000 nM. Regarding `C=CC(=O)N1CC2(CC(n3nc(N4CC[C@@H](CN5CCN(C(C)=O)CC5)CC4(C)C)c(-c4c(Cl)c(Cl)cc5[nH]ncc45)c3C)C2)C1` (single isomer, unassigned) [Example 319a], the IC50 is 2700 nM. In the case of `C=CC(=O)N1CC2(CC(n3nc(N4CCN(C(=O)C5CC5)CC4(C)C)c(-c4c(Cl)c(C)cc5[nH]ncc45)c3C)C2)C1` (single isomer, unassigned) [Example 127b, 1-(6-(4-(5-chloro-6-methyl-1H-indazol-4-yl)-3-(4-(cyclopropanecarbonyl)-2,2-dimethylpiperazin-1-yl)-5-methyl-1H-pyrazol-1-yl)-2-azaspiro[3.3]heptan-2-yl)prop-2-en-1-one] it was 20 nM; in that of `C=CC(=O)N1CC2(CC(n3nc(N4CCC(C(=O)N(C)C)CC4(C)C)c(-c4c(Cl)c(C)cc5[nH]ncc45)c3C)C2)C1` (single isomer, unassigned) [Example 99a, 1-(1-(2-acryloyl-2-azaspiro[3.3]heptan-6-yl)-4-(5-chloro-6-methyl-1H-indazol-4-yl)-5-methyl-1H-pyrazol-3-yl)-N,N,2,2-tetramethylpiperidine-4-carboxamide], 2900 nM; in that of `C=CC(=O)N1CC2(CC(n3nc(N4CCN(C5COC5)C[C@@]4(C)CC)c(-c4c(Cl)c(C)cc5[nH]ncc45)c3C)C2)C1` (single isomer, unassigned) [Example 143a], greater than 5000 nM. The figure for `C=CC(=O)N1CC2(CC(n3nc(N4CCC(N5CCOCC5)CC45CCC5)c(-c4c(Cl)c(C)cc5[nH]ncc45)c3C)C2)C1` (single isomer, unassigned) [Example 63a, 1-(6-(4-(5-chloro-6-methyl-1H-indazol-4-yl)-5-methyl-3-(8-morpholino-5-azaspiro[3.5]nonan-5-yl)-1H-pyrazol-1-yl)-2-azaspiro[3.3]heptan-2-yl)prop-2-en-1-one] is 10 nM; for `C=CC(=O)N1CC2(CC(n3nc(N4CCN(C(C)=O)CC4)c(-c4c(Cl)ccc5[nH]ncc45)c3C)C2)C1` (single isomer, unassigned) [Example 36a, 1-(6-(3-(4-acetylpiperazin-1-yl)-4-(5-chloro-1H-indazol-4-yl)-5-methyl-1H-pyrazol-1-yl)-2-azaspiro[3.3]heptan-2-yl)prop-2-en-1-one] it is 24400 nM.

Turning to `C=CC(=O)N1CC2(CC(n3nc(N4CCC(N5C6CCC5COC6)CC4(C)C)c(-c4c(Cl)c(C)cc5[nH]ncc45)c3C)C2)C1` [Example 75a, 1-(6-(3-(4-((1R,5S)-3-oxa-8-azabicyclo[3.2.1]octan-8-yl)-2,2-dimethylpiperidin-1-yl)-4-(5-chloro-6-methyl-1H-indazol-4-yl)-5-methyl-1H-pyrazol-1-yl)-2-azaspiro[3.3]heptan-2-yl)prop-2-en-1-one], the IC50 was greater than 5000 nM. The figure for `C=CC(=O)N1CC2(CC(n3nc(N4CC[C@@H](CN5CCOC6CS(=O)(=O)CC65)CC4(C)C)c(-c4c(Cl)c(Cl)cc5[nH]ncc45)c3C)C2)C1` (single isomer, unassigned) [Example 265a, 1-(6-(4-(5,6-dichloro-1H-indazol-4-yl)-3-((R)-4-(((4aR*,7aS*)-6,6-dioxidohexahydro-4H-thieno[3,4-b][1,4]oxazin-4-yl)methyl)-2,2-dimethylpiperidin-1-yl)-5-methyl-1H-pyrazol-1-yl)-2-azaspiro[3.3]heptan-2-yl)prop-2-en-1-one] is 2900 nM; for `C=CC(=O)N1CC2(CC(n3nc(N4CC[C@@H](CN5CC6(CCCN6C(C)=O)C5)CC4(C)C)c(-c4c(Cl)c(Cl)cc5[nH]ncc45)c3C)C2)C1` (single isomer, unassigned) [Example 285b] it is 7 nM; for `C=CC(=O)N1CC2(CC(n3nc(N4CCn5ccnc5C4(C)C)c(-c4c(Cl)c(C)cc5[nH]ncc45)c3C)C2)C1` (single isomer, unassigned) [Example 23a, 1-(6-(4-(5-chloro-6-methyl-1H-indazol-4-yl)-3-(8,8-dimethyl-5,6-dihydroimidazo[1,2-a]pyrazin-7(8H)-yl)-5-methyl-1H-pyrazol-1-yl)-2-azaspiro[3.3]heptan-2-yl)prop-2-en-1-one] it is greater than 50000 nM.

For the compound `C=CC(=O)N1CC2(CC(n3nc(N4CCN(C(C)=O)CC4)c(-c4c(Cl)ccc5[nH]ncc45)c3C)C2)C1C` (single isomer, unassigned) [Example 197a, 1-(6-(3-(4-acetylpiperazin-1-yl)-4-(5-chloro-1H-indazol-4-yl)-5-methyl-1H-pyrazol-1-yl)-1-methyl-2-azaspiro[3.3]heptan-2-yl)prop-2-en-1-one], the IC50 was greater than 50000 nM. As to `C=CC(=O)N1CC2(CC(n3nc(N4CCN(C[C@@H]5COCCO5)C[C@@]4(C)C(F)F)c(-c4c(Cl)c(Cl)cc5[nH]ncc45)c3C)C2)C1` (single isomer, unassigned) [Example 105b], the 50% inhibitory concentration (IC50) was 19 nM.

In general, IC50 refers to the concentration needed to halve the response being measured.
